Reference: patent US20260250318A1, “COMPOSITIONS AND METHODS FOR CROSSING THE BLOOD BRAIN BARRIER” (VOYAGER THERAPEUTICS, INC., priority 2022, published 2026)

Legend:
Conditions in all cases: synthetic library passage 3, intravenous, relative to wild-type AAV9
[1] = tested on: brain, spinal cord, and DRG of the NHPs; test: NGS fold enrichment of synthetic library (passage 3) in NHPs, first cross-species screen; format: in vivo, cynomolgus macaques (Macaca fascicularis)
Method in brief: (§1)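 Synthetic capsid library (passage 3) was given intravenously […] to NHPs aged 2-4 years and to BALB/c and C57Bl/6 mice (n=3 each, 6-8 weeks). After about 28 days in vivo, tissue RNA was RT-PCR amplified and NGS-sequenced; values are fold enrichment per variant relative to wild-type AAV9.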

brain [2] = test: NGS fold enrichment of synthetic library (passage 3) in BALB/c mice, first cross-species screen; format: in vivo
Method in brief: as §1

brain [3] = test: NGS fold enrichment of synthetic library (passage 3) in C57Bl/6 mice, first cross-species screen; format: in vivo
Method in brief: as §1

[4] = RNA from spinal cord of NHPs, NGS
[5] = RNA from brain of BALB/c mice, NGS
[6] = RNA from brain of C57Bl/6 mice, NGS

Row | Sequence | Fold enrichment over AAV9 in the brain of NHPs ([1]; RNA NGS, brain of NHPs) [fold] | Fold enrichment over AAV9 in the spinal cord of NHPs ([1]; RNA NGS, spinal cord of NHPs) [fold] | Fold enrichment over AAV9 in the brain of Mice (BALB/c) (brain [2]; RNA NGS, brain of BALB/c mice) [fold] | Fold enrichment over AAV9 in the brain of Mice (C57Bl/6) (brain [3]; RNA NGS, brain of C57Bl/6 mice) [fold] | Fold enrichment over AAV9 in the brain of NHPs ([1]; RNA from brain of NHPs, NGS) [fold] | Fold enrichment over AAV9 in the spinal cord of NHPs [1, 4] [fold] | Fold enrichment over AAV9 in the brain of Mice (BALB/c) (brain [2]; [5]) [fold] | Fold enrichment over AAV9 in the brain of Mice (C57Bl/6) (brain [3]; [6]) [fold]
1 | GVVRNHQSGQNQQT | 1.116 | 5.801 | 0.868 | 0.899 |  |  |  | 
2 | GSGQNQQSNWITKT | 2.711 | 0.000 | 0.634 | 0.540 |  |  |  | 
3 | GSLLTTASGQNQQT | 1.822 | 0.780 | 0.635 | 0.938 |  |  |  | 
4 | GSGQNAHAKEGQQT | 1.108 | 0.000 | 1.179 | 0.875 |  |  |  | 
5 | GSGQNQQTSGVLTL | 1.553 | 0.000 | 0.782 | 1.104 |  |  |  | 
6 | GSLHAGLSGQNQQT |  |  |  |  | 1.408 | 1.739 | 0.936 | 1.286
7 | GSGHSSHSVQNQQT | 3.339 | 3.318 | 0.424 | 0.942 |  |  |  | 
8 | GSGQDVTKTGNQQT |  |  |  |  | 1.173 | 4.523 | 0.035 | 0.531
9 | GHPSPHVSGQNQQT | 1.713 | 0.416 | 0.488 | 0.551 |  |  |  | 
10 | GARIQNASGQKQQT | 2.300 | 2.103 | 1.039 | 1.220 |  |  |  | 
11 | GSGQIKGKMDNQQT | 1.654 | 2.601 | 1.012 | 1.065 |  |  |  | 
12 | GVHTHLPSGQNQQT | 1.952 | 1.364 | 0.796 | 1.414 |  |  |  | 
13 | GSGQNTRLQLGQQT | 1.452 | 1.747 | 0.234 | 0.181 |  |  |  | 
14 | GSGSNMRLSQNQQT |  |  |  |  | 1.363 | 0.588 | 0.730 | 0.962
15 | GSGRNPQTQPLQQT | 1.519 | 0.040 | 0.573 | 0.733 |  |  |  | 
16 | GSGQNQHSAPNSQT | 2.134 | 4.143 | 0.731 | 1.187 |  |  |  | 
17 | GLGAYQSSGQNQQT | 1.574 | 0.696 | 0.688 | 1.407 |  |  |  | 
